Assay: Uptake (sorption) of Alexidine by SureVue hydrogel contact lenses after overnight soak
Assay type: physicochemical
From the text: The following examples evaluate whether the addition of cyclodextrin reduced the sorption of the biguanide Alexidine on SureVue® brand hydrogel contact lenses (commercially available from Johnson & Johnson Vision Care Incorporated of Jacksonville, Fla.).
5. 3-mL of each test solution, as well as the control solution, were placed into the lens cases for a total of 5 samples per solution.
6. SureVue® lenses were placed into each lens well aseptically.
7. Each lens was “dipped” into double-distilled water for approximately 2 seconds prior to installation into the lens cases.
8. Lenses were allowed to soak for approximately 18 hours (overnight).
9. 1-mL of solution from each of the lens wells was removed, analyzed and returned to the lens cases.

Row | Uptake of Alexidine by SureVue ® Lenses (0.1% Beta-Cyclodextrin) (0.1% Beta-Cyclodextrin, soak approximately 18 hours) [ppm] | Uptake of Alexidine by SureVue ® Lenses (0.3% Beta-Cyclodextrin) (0.3% Beta-Cyclodextrin, soak approximately 18 hours) [ppm] | Uptake of Alexidine By SureVue ® Lenses (no Beta-Cyclodextrin (control solution), soak approximately 18 hours) [ppm] | Compound | Inhibition of uptake of Alexidine by SureVue ® Lenses (0.1% Beta-Cyclodextrin) [% Inhibition] | Inhibition of uptake of Alexidine by SureVue ® Lenses (0.3% Beta-Cyclodextrin) [% Inbibition]
1 | 62.10 | 31.04 | 75.26 | CCCCC(CC)CNC(=N)NC(=N)NCCCCCCNC(=N)NC(=N)NCC(CC)CCCC (centres unmarked) [Alexidine] | – | –
2 | – | – | – | OC[C@H]1O[C@@H]2O[C@H]3[C@H](O)[C@@H](O)[C@@H](O[C@H]4[C@H](O)[C@@H](O)[C@@H](O[C@H]5[C@H](O)[C@@H](O)[C@@H](O[C@H]6[C@H](O)[C@@H](O)[C@@H](O[C@H]7[C@H](O)[C@@H](O)[C@@H](O[C@H]8[C@H](O)[C@@H](O)[C@@H](O[C@H]1[C@H](O)[C@H]2O)O[C@@H]8CO)O[C@@H]7CO)O[C@@H]6CO)O[C@@H]5CO)O[C@@H]4CO)O[C@@H]3CO [Beta-Cyclodextrin] | 17.50 | 58.75

Source: US6528464B1, “Composition and method for inhibiting uptake of biguanide antimicrobials by hydrogels” (Bausch & Lomb Incorporated, priority 2001, dated 2003)
